Reference: patent publication US10787432B2, “N-[(pyridyloxy)propanyl]benzamides” (Boehringer Ingelheim International GmbH, priority 2016, dated 2020)
Like-named read-outs stand apart in the source and are kept apart here.

Tests used:
human Orexin 1 receptor = target: T1, human Orexin 1 receptor (Homo sapiens, UniProt O43613); assay: Assay A: In vitro testing of OX1R potency: OX1R IP1 (HTRF, CHO-K1/hOX1 cells, Orexin A as agonist); type: cell-based
T1 construct: stably expressing the full-length human Orexin 1 receptor; expressed in transfected cells; host or cells: CHO-K1 (CHO-K1/hOX1), co-expressing aequorin
T1 sequence (O43613 1-425): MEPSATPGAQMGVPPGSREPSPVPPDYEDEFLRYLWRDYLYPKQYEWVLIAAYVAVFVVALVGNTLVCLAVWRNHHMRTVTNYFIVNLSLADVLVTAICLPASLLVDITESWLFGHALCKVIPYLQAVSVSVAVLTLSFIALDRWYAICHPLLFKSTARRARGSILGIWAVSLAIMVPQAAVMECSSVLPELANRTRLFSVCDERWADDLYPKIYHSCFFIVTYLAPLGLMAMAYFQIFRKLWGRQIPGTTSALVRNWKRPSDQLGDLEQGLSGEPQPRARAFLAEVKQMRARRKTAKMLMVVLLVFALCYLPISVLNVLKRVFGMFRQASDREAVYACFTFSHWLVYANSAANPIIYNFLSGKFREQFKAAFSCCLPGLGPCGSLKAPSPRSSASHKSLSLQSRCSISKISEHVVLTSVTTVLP

human orexin 2 receptor = target: T2, human orexin 2 receptor (Homo sapiens, UniProt O43614); assay: Assay B: In vitro testing of OX2R potency: OX2R IP1 (HTRF, CHO-K1/hOX2 cells, Orexin A as agonist); type: cell-based
T2 construct: stably expressing the full-length human orexin 2 receptor; expressed in transfected cells; host or cells: CHO-K1 (CHO-K1/hOX2), co-expressing aequorin
T2 sequence (O43614 1-444): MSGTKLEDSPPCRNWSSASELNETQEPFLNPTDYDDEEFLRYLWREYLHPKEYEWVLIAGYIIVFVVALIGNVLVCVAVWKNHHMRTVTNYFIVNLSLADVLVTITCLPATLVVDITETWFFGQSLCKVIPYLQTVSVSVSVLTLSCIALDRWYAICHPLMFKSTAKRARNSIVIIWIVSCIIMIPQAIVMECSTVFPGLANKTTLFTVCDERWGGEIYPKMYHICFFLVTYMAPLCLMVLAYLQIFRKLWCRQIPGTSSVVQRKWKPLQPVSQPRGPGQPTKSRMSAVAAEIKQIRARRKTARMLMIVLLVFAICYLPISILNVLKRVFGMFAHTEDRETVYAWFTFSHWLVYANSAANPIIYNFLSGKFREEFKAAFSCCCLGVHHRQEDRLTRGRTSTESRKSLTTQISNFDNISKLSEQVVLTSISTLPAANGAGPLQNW
From the text: Activation of the orexin receptors expressed in cell lines results in an increase in intracellular IP3 concentration. IP1, a downstream metabolite of IP3, accumulates in cells following receptor activation and is stable in the presence of LiCl. Using Homogeneous Time-Resolved Fluorescence technology with Lumi4-Tb cryptate (commercially available from Cisbio Bioassay.) and a suitable fluorescence plate reader. […] Chem. Genomics 2009, 3, 22-32. This technique is used to characterize pharmacological modification of the orexin receptors.
B. In Vitro Testing of OX2R Potency: OX2R IP1
IP1 measurements are performed in CHO-K1 cells stably expressing the full-length human orexin 2 receptor and the aequorin photoprotein. Cells are cultivated in Ham's nutrient mixture F12 medium with 10% fetal calf serum, in a 37° C., 95% humidity and 5% CO2 incubator. The CHO-K1/hOX2 cell mass is expanded to larger cell numbers. The cells are obtained as frozen cells in cryo-vials and stored until use at −150° C. The viability of the cells after thawing is >90%. In preparation for the assay, 24 hours before the assay, the cells are thawed at 37° C. and immediately diluted with cell culture medium. After centrifugation, the cell pellet is resuspended in medium and then distributed into the assay plates with a density of 5000 cells/25 μL per well. The plates are incubated for one hour at room temperature to reduce edge effects before they are incubated for 24 hours at 37° C./5% CO2. Compounds are prepared by a 8-point serial dilution in DMSO and a final dilution step into assay buffer (HBSS with 20 mM HEPES, 0.1% BSA and 50 mM LiCl, pH 7.4) to ensure a final DMSO concentration of 1% in the assay.
On the day of the assay, cells in the plate are washed twice with 60 μL assay buffer (20 μL buffer remained in the wells after washing), followed by adding 5 μL per well of compounds diluted in assay buffer. After 15 minutes of incubation at room temperature 5 μL per well of Orexin A peptide (final concentration: 0.5 nM) dissolved in assay buffer is added to the assay plate. The assay plate is incubated for 60 minutes at 37° C. Then 5 μL per well of Anti-IP1-Cryptate Tb solution and 5 μL per well of IP1-d2 dilution are added to all well of the plate and the plate is incubated for a further 60 minutes light protected at room temperature. The emission at 615 nm and 665 nm (Excitation wavelength: 320 nm) are measured using an EnVision reader (PerkinElmer). The ratio between the emission at 665 nm and 615 is calculated by the reader.
8-point four parametric non-linear curve fitting and determination of IC50 values and Hill slopes is performed using a regular analysis software e.g. AssayExplorer (Accelrys). In order to establish an agonist concentration independent parameter, Kb values are calculated using the following equation: IC50/((2+(A/EC50)n)^1/n−1) (with A=concentration agonist, EC50=EC50 agonist, n=Hill slope agonist) (see P. Leff, I. G. Dougall, Trends Pharmacol. Sci. 1993, 14(4), 110-112).
Kb values from Assay A (OX1R) and Assay B (OX2R) can then provide a selectivity ratio which is independent of the agonist (Orexin A) concentration.

[1] = Assay C: Metabolic stability in human liver microsomes (Human MST); type: in vitro ADME; conditions: pooled human liver microsomes, pH 7.6; human liver microsomes 1 mg/mL, compound 1 μM, 37° C., NADPH; read-out: Human MST t1/2
Method: C. Assessment of Metabolic Stability in Human Liver Microsomes (Human MST)
The metabolic stability of the compounds according to the invention may be investigated as follows:
The metabolic degradation of the test compound is assayed at 37° C. with pooled human liver microsomes. The final incubation volume of 100 μL per time point contains TRIS buffer pH 7.6 at room temperature (0.1 M), MgCl2 (5 mM), microsomal protein (1 mg/mL) and the test compound at a final concentration of 1 μM. Following a short pre-incubation period at 37° C., the reactions are initiated by addition of beta-nicotinamide adenine dinucleotide phosphate, reduced form (NADPH, 1 mM), and terminated by transferring an aliquot into solvent after different time points. After centrifugation (10000 g, 5 min), an aliquot of the supernatant is assayed by LC-MS/MS for the amount of parent compound. The half-life (t1/2) is determined by the slope of the semi-logarithmic plot of the concentration-time profile.

[2] = Orexin A 50 nM, read-out: OX1R Kb (Orexin A concentration used)
[3] = Orexin A 0.5 nM, read-out: OX1R Kb (Orexin A concentration used)

SMILES	OX2R Kb/OX1R Kb (human Orexin 1 receptor; OX1R Kb at 50 nM Orexin A)	Kb (human Orexin 1 receptor; [2])	Kb (human orexin 2 receptor; Orexin A 0.5 nM)	half-life at 1 μM [1]	OX2R Kb/OX1R Kb (human Orexin 1 receptor; OX1R Kb at 0.5 nM Orexin A)	Kb (human Orexin 1 receptor; [3])	Kb (human Orexin 1 receptor)	Kb (human orexin 2 receptor)
CCN(C(=O)c1ccc(Cl)cc1-n1nccn1)[C@@H](C)COc1ncc(C(F)(F)F)cc1F [Example 73]	734	0.32 nM	235 nM	12 min	–	–	–	–
CCN(C(=O)c1ccc(F)cc1-c1nnc(C)o1)[C@@H](C)COc1ncc(C(F)(F)F)cc1F [Example 55]	–	–	3100 nM	64 min	430	7.2 nM	–	–
CCN(C(=O)c1ccc(C)cc1-c1nnc(C)o1)[C@@H](C)COc1ccc(OC(F)(F)F)cn1 [Example 121]	293	1.5 nM	440 nM	15 min	314	1.4 nM	–	–
CCN(C(=O)c1ccc(Cl)cc1-n1nccn1)[C@@H](C)COc1ccc(Cl)cn1 [Example 45]	59	0.354 nM	21 nM	18 min	–	–	–	–
CCN(C(=O)c1cc(F)c(F)cc1-n1nccn1)[C@@H](C)COc1ccc(Cl)cn1 [Example 30]	–	–	160 nM	52 min	70	2.3 nM	–	–
CCN(C(=O)c1ccccc1-c1cnnc(C)c1)[C@@H](C)COc1ccc(C(F)(F)F)cn1 [Example 84]	–	–	1290 nM	11 min	150	8.6 nM	–	–
CCN(C(=O)c1cccc(F)c1-n1nccn1)[C@@H](C)COc1ccc(F)c(C(F)(F)F)n1 [Example 133]	–	–	–	21 min	63	–	1.6 nM	101 nM
CCN(C(=O)c1ccc(C)cc1-c1nnc(C)o1)[C@@H](C)COc1ccc(Cl)cn1 [Example 38]	–	–	877 nM	11 min	313	2.8 nM	–	–
CCN(C(=O)c1ccc(F)cc1-n1nccn1)[C@@H](C)COc1ncc(C(F)(F)F)cc1F [Example 48]	220	0.93 nM	205 nM	31 min	156	1.31 nM	–	–
CCN(C(=O)c1cccc(F)c1-n1nccn1)[C@@H](C)COc1ccc(Cl)cn1 [Example 114]	98	0.55 nM	54 nM	110 min	92	0.59 nM	–	–
CCN(C(=O)c1cccc(F)c1-c1ncccn1)[C@@H](C)COc1ccc(Br)cn1 [Example 125]	355	0.076 nM	27 nM	> 130 min	–	–	–	–
CCN(C(=O)c1cccc(F)c1-c1ncccn1)[C@@H](C)COc1ccc(OC(F)(F)F)cn1 [Example 130]	133	0.15 nM	20 nM	> 130 min	–	–	–	–
CCN(C(=O)c1cc(F)cc(F)c1-n1nccn1)[C@@H](C)COc1ccc(C(F)(F)F)cn1 [Example 13]	511	0.18 nM	92 nM	49 min	–	–	–	–
CCN(C(=O)c1c(F)cccc1-n1nccn1)[C@@H](C)COc1ncc(C(F)(F)F)cc1F [Example 56]	257	0.42 nM	108 nM	48 min	98	1.1 nM	–	–
CCN(C(=O)c1cccc(F)c1-c1ncccn1)[C@@H](C)COc1ccc(C(F)(F)F)cn1 [Example 97]	800	0.025 nM	20 nM	100 min	–	–	–	–
CCN(C(=O)c1cccc(C)c1-c1nnc(C)o1)[C@@H](C)COc1ccc(C(F)(F)F)cn1 [Example 20]	292	0.12 nM	35 nM	20 min	–	–	–	–
CCN(C(=O)c1cccc(C)c1-c1nnc(C)o1)[C@@H](C)COc1ncc(C(F)(F)F)cc1F [Example 64]	705	0.22 nM	155 nM	15 min	–	–	–	–
CCN(C(=O)c1ccccc1-c1ccn(C)c(=O)c1)[C@@H](C)COc1ccc(C(F)(F)F)cn1 [Example 81]	–	–	1670 nM	39 min	575	2.9 nM	–	–
CCN(C(=O)c1ccccc1-c1cnn(C)c1)[C@@H](C)COc1ccc(C(F)(F)F)cn1 [Example 93]	99	0.75 nM	74 nM	18 min	–	–	–	–
CCN(C(=O)c1ccccc1-n1nccn1)[C@@H](C)COc1ccc(C(F)(F)F)cn1 [Example 10]	117	0.18 nM	21 nM	24 min	–	–	–	–
CCN(C(=O)c1c(F)cccc1-n1nccn1)[C@@H](C)COc1ccc(C(F)(F)F)cn1 [Example 94]	211	0.37 nM	78 nM	31 min	–	–	–	–
CCN(C(=O)c1ccccc1-c1noc(C)n1)[C@@H](C)COc1ccc(C(F)(F)F)cn1 [Example 123]	200	0.17 nM	34 nM	23 min	–	–	–	–
CCN(C(=O)c1ccccc1-c1ccn(C)n1)[C@@H](C)COc1ccc(C(F)(F)F)cn1 [Example 74]	229	0.21 nM	48 nM	14 min	123	0.39 nM	–	–
CCN(C(=O)c1ccc(C)cc1-c1ncccn1)[C@@H](C)COc1ccc(C(F)(F)F)cn1 [Example 101]	–	–	30 nM	13 min	79	0.38 nM	–	–
